Measurements taken from patent US8552208B2, “Analogs of tetramic acid” (University of Tennesseee Research Foundation, priority 2007, dated 2013).
≈ marks a conversion by molar mass, not a printed value. Read-outs that look alike come from different tables or passages of the source.

Key:
[1] = Cytotoxicity assay (MTT); type: cell-based, monkey; conditions: monkey, Vero cells, 72 hours, MTT, read-out: IC50 (Cytotoxicity): Concentration which reduces viability of Vero kidney cells by 50%
Protocol: (§1) Cytotoxicity assays of drugs of Formula I of Example 3 and of Formula II of Example 5 were performed using the Vero monkey kidney cell line (ATCC, CCL-81). Vero cells were grown in tissue culture flasks in Dulbecco's Modified Eagle's Medium (ATCC) supplemented with 10% fetal bovine serum and maintained in a humidified incubator (37° C., 5% CO2). Cells were removed with a cell scraper, collected by centrifugation and then suspended in fresh medium at ˜10^6 cells/mL. The cell suspensions were dispensed into 96-well microtiter plates (100 μl/well) and incubated for 18 hours at 37° C. before being used for cytotoxicity assays. Test compounds were subsequently added at concentrations ranging from 400-0.024 μg/mL and 0.1% vol/vol of Triton-X 100, which causes 100% death of cells, was included as a control. After incubating cells and compounds for 72 hours in humid air (37° C., 5% CO2) the cytopathic effects of compounds were determined using the MTT Cell Proliferation Assay (ATCC, Cat No. 30-1010K). The MTT solution reagent (10 μl) was added to each well and plates incubated at 37° C. until sufficient purple color development occurred in cells (3 hours). After detergent cell lysis, the purple formazan product was measured at 570 nm in a Synergy HT Biotek microplate reader. IC50 data was obtained from dose response curves plotted from percentage activity versus log10 concentration using Graphpad prism 5.

[2] = test system: Vero monkey kidney cell line (ATCC, CCL-81); assay: Cytotoxicity assay (MTT); type: cell-based
Protocol: as §1

[3] = test system: Bacillus subtilis ATCC 23857; assay: Antibacterial activity assay (MIC, broth dilution); type: cell-based; conditions: ATCC23857; Bacillus subtilis ATCC 23857; read-out: MIC, BS
[4] = test system: Methicillin Resistant Staphylococcus aureus ATCC 33591; assay: Antibacterial activity assay (MIC, broth dilution); type: cell-based; conditions: ATCC 33591 / MRSA, read-out: MIC, MRSA
[5] = test system: Streptococcus pyogenes ATCC 700294; assay: Antibacterial activity assay (MIC, broth dilution); type: cell-based; conditions: ATCC700294; Streptococcus pyogenes ATCC 700294; read-out: MIC, SP
[6] = test system: Methicillin sensitive Staphylococcus aureus 8325 ATCC 35556; assay: Antibacterial activity assay (MIC, broth dilution); type: cell-based; conditions: ATCC 35556 / MSSA; Methicillin sensitive Staphylococcus aureus 8325 ATCC 35556; read-out: MIC, MSSA
[7] = test system: Bacillus anthracis Sterne 34F2; assay: microbe, parasite or virus in culture; type: cell-based; conditions: STERNE34F2, read-out: MIC, BA
[8] = test system: Enterococcus faecalis ATCC 33186; assay: Antibacterial activity assay (MIC, broth dilution); type: cell-based; conditions: ATCC33186; Enterococcus faecalis ATCC 33186; read-out: MIC, EF
[9] = test system: Mycobacterium tuberculosis H37 Rv; assay: Antibacterial activity assay (MIC, broth dilution); type: cell-based; conditions: H37RV, 168 h; Mycobacterium tuberculosis H37 Rv; […]; read-out: MIC, TB
[10] = test system: Propionibacterium acnes ATCC 6919; assay: Antibacterial activity assay (MIC, broth dilution); type: cell-based; conditions: Cutibacterium acnes, ATCC6919; Propionibacterium acnes ATCC 6919; read-out: MIC, PA
[11] = test system: Streptococcus pneumoniae DAW30EC; assay: Antibacterial activity assay (MIC, broth dilution); type: cell-based; conditions: Streptococcus pneumoniae DAW30EC; read-out: MIC, SPn
[12] = IC50 divided by MIC against S. aureus 8325
[13] = Vero monkey kidney cells (ATCC CCL-81)

SMILES	IC50 at 72 h [1] [µg/mL]	IC50/MIC = Selectivity (therapeutic) index [2, 12]	MIC [3] [µg/mL]	MIC [4] [µg/mL]	MIC [5] [µg/mL]	MIC [6] [µg/mL]	MIC [7] [µg/mL]	MIC [8] [µg/mL]	MIC [9] [µg/mL]	MIC [10] [µg/mL]	MIC [11] [µg/mL]	IC50 at 72 h [1, 13] [µg/mL]	IC50/MIC = Selectivity (therapeutic) index ([2]; IC50 divided by MIC against E. faecalis (12p only))
CCC(C)[C@H]1C(=O)/C(=C(\C)O)C(=O)N1Cc1ccccc1 (stereo partly drawn) [Compound 13a, (S,Z)-1-benzyl-5-sec-butyl-3-(1-hydroxyethylidene)pyrrolidine-2,4-dione]	26.3	4.2	25 (≈ 87 µM)	6.25 (≈ 21.7 µM)	> 200	6.25 (≈ 21.7 µM)	3.12 (≈ 10.9 µM)	6.25 (≈ 21.7 µM)	50 (≈ 174 µM)	6.25 (≈ 21.7 µM)	50 (≈ 174 µM)	–	–
C/C(O)=C1\C(=O)[C@@H](CC(C)C)N(Cc2ccc(F)cc2)C1=O [Compound 13f, (R,Z)-1-(4-fluorobenzyl)-3-(1-hydroxyethylidene)-5-isobutylpyrrolidine-2,4-dione]	35.3	2.8	12.5 (≈ 40.9 µM)	12.5 (≈ 40.9 µM)	100 (≈ 327 µM)	12.5 (≈ 40.9 µM)	12.5 (≈ 40.9 µM)	50 (≈ 164 µM)	100 (≈ 327 µM)	12.5 (≈ 40.9 µM)	25 (≈ 81.9 µM)	–	–
N#CC1=C(O)[C@@H](Cc2ccccc2)N(Cc2ccccc2)C1=O [Compound 12g, (R)-1,5-dibenzyl-4-hydroxy-2-oxo-2,5-dihydro-1H-pyrrole-3-carbonitrile]	–	–	> 200	> 200	> 200	> 200	> 200	> 200	> 200	> 200	> 200	–	–
CCCCCCCCCCN1C(=O)C(C#N)=C(O)[C@@H]1CC(C)C [Compound 12b, (S)-1-decyl-4-hydroxy-5-isobutyl-2-oxo-2,5-dihydro-1H-pyrrole-3-carbonitrile]	152	6.1	50 (≈ 156 µM)	25 (≈ 78 µM)	> 200	25 (≈ 78 µM)	25 (≈ 78 µM)	25 (≈ 78 µM)	3.12 (≈ 9.74 µM)	12.5 (≈ 39 µM)	100 (≈ 312 µM)	–	–
CCCCCCCCCCN1C(=O)/C(=C(/C)O)C(=O)[C@H]1CC(C)C [Compound 13o, (R,Z)-1-decyl-3-(1-hydroxyethylidene)-5-isobutylpyrrolidine-2,4-dione]	–	15.8	0.8 (≈ 2.37 µM)	0.8 (≈ 2.37 µM)	50 (≈ 148 µM)	0.4 (≈ 1.19 µM)	0.8 (≈ 2.37 µM)	1.6 (≈ 4.74 µM)	25 (≈ 74.1 µM)	0.8 (≈ 2.37 µM)	6.25 (≈ 18.5 µM)	6.3	–
CCN1C(=O)/C(=C(/C)O)C(=O)[C@@H]1Cc1ccccc1 [Compound 13h, (S,Z)-5-benzyl-1-ethyl-3-(1-hydroxyethylidene)pyrrolidine-2,4-dione]	–	–	> 200	> 200	> 200	200 (≈ 771 µM)	50 (≈ 193 µM)	> 200	> 200	100 (≈ 386 µM)	> 200	–	–
COc1cccc(CN2C(=O)/C(=C(/C)O)C(=O)[C@@H]2CC(C)C)c1 [Compound 13d, (S,Z)-3-(1-hydroxyethylidene)-5-isobutyl-1-(3-methoxybenzyl)pyrrolidine-2,4-dione]	40	3.2	25 (≈ 78.8 µM)	25 (≈ 78.8 µM)	200 (≈ 630 µM)	12.5 (≈ 39.4 µM)	25 (≈ 78.8 µM)	100 (≈ 315 µM)	100 (≈ 315 µM)	12.5 (≈ 39.4 µM)	50 (≈ 158 µM)	–	–
CC(C)C[C@@H]1C(O)=C(C#N)C(=O)N1Cc1ccc(F)cc1 [Compound 12f, (R)-1-(4-fluorobenzyl)-4-hydroxy-5-isobutyl-2-oxo-2,5-dihydro-1H-pyrrole-3-carbonitrile]	–	–	> 200	> 200	> 200	> 200	> 200	> 200	> 200	> 200	> 200	–	–
C/C(O)=C1\C(=O)[C@H](CC(C)C)N(Cc2ccc(F)cc2)C1=O [Compound 13e, (S,Z)-1-(4-fluorobenzyl)-3-(1-hydroxyethylidene)-5-isobutylpyrrolidine-2,4-dione]	27.8	2.2	25 (≈ 81.9 µM)	25 (≈ 81.9 µM)	100 (≈ 327 µM)	12.5 (≈ 40.9 µM)	12.5 (≈ 40.9 µM)	50 (≈ 164 µM)	100 (≈ 327 µM)	6.25 (≈ 20.5 µM)	50 (≈ 164 µM)	–	–
C/C(O)=C1\C(=O)[C@H](Cc2ccccc2)N(Cc2ccccc2)C1=O [Compound 13c, (S,Z)-1,5-dibenzyl-3-(1-hydroxyethylidene)pyrrolidine-2,4-dione]	–	6.1	25 (≈ 77.8 µM)	25 (≈ 77.8 µM)	> 200	12.5 (≈ 38.9 µM)	25 (≈ 77.8 µM)	100 (≈ 311 µM)	> 200	12.5 (≈ 38.9 µM)	100 (≈ 311 µM)	75.7	–
COc1cccc(CN2C(=O)C(C#N)=C(O)[C@@H]2CC(C)C)c1 [Compound 12d, (S)-4-hydroxy-5-isobutyl-1-(3-methoxybenzyl)-2-oxo-2,5-dihydro-1H-pyrrole-3-carbonitrile]	–	–	> 200	> 200	> 200	> 200	> 200	> 200	> 200	> 200	> 200	–	–
CC(C)C[C@H]1C(O)=C(C#N)C(=O)N1Cc1ccc(F)cc1 [Compound 12e, (S)-1-(4-fluorobenzyl)-4-hydroxy-5-isobutyl-2-oxo-2,5-dihydro-1H-pyrrole-3-carbonitrile]	–	–	> 200	> 200	> 200	> 200	> 200	> 200	> 200	> 200	> 200	–	–
CCC(C)[C@H]1C(O)=C(C#N)C(=O)N1Cc1ccco1 (stereo partly drawn) [Compound 12p, (S)-5-sec-butyl-1-(furan-2-ylmethyl)-4-hydroxy-2-oxo-2,5-dihydro-1H-pyrrole-3-carbonitrile]	6400	–	25 (≈ 96 µM)	> 200	> 200	> 200	3.12 (≈ 12 µM)	3.12 (≈ 12 µM)	> 200	12.5 (≈ 48 µM)	50 (≈ 192 µM)	–	2049.7
CCC(C)[C@H]1C(O)=C(C#N)C(=O)N1Cc1ccccc1 (stereo partly drawn) [Compound 12a, (S)-1-benzyl-5-sec-butyl-4-hydroxy-2-oxo-2,5-dihydro-1H-pyrrole-3-carbonitrile]	–	–	> 200	> 200	> 200	> 200	> 200	> 200	> 200	> 200	> 200	–	–
C/C(O)=C1\C(=O)[C@@H](Cc2ccccc2)N(Cc2ccccc2)C1=O [Compound 13g, (R,Z)-1,5-dibenzyl-3-(1-hydroxyethylidene)pyrrolidine-2,4-dione]	–	3.2	25 (≈ 77.8 µM)	25 (≈ 77.8 µM)	200 (≈ 622 µM)	25 (≈ 77.8 µM)	25 (≈ 77.8 µM)	100 (≈ 311 µM)	> 200	25 (≈ 77.8 µM)	50 (≈ 156 µM)	80.6	–
N#CC1=C(O)[C@H](Cc2ccccc2)N(Cc2ccccc2)C1=O [Compound 12c, (S)-1,5-dibenzyl-4-hydroxy-2-oxo-2,5-dihydro-1H-pyrrole-3-carbonitrile]	–	–	> 200	> 200	> 200	> 200	> 200	> 200	> 200	> 200	> 200	–	–
